Results: article PMC6657233 (Translational Oncology, 2019)

Target: T1, adenosine transporter (AT; NBMPR-sensitive equilibrative nucleoside transporter subtype, ENT) (Homo sapiens, UniProt Q99808)
T1 sequence (Q99808 2-456): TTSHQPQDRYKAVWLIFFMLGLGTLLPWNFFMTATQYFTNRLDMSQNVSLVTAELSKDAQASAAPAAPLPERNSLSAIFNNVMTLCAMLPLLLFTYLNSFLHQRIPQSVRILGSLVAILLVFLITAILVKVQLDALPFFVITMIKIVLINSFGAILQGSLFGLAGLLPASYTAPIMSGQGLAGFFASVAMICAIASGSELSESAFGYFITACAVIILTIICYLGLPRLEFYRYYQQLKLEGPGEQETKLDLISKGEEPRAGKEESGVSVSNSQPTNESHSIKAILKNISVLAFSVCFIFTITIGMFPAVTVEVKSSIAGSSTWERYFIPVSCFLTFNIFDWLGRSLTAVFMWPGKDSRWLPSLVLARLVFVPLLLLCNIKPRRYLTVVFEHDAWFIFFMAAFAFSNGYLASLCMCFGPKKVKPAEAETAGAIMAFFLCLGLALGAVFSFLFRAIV
Assay: [3H]adenosine uptake inhibition in HeLa cells
Format: cell-based
Conditions: read-out: Findings

IC50: 280 nM
SMILES: COCCOc1cnc2ccn([C@H](C)c3nnc4c(F)cc(-c5cnn(C)c5)cn34)c(=O)c2c1 [AMG 337]
